From US20240108740A1, “THERAPEUTIC COMPOSITIONS INCLUDING SPN10 AND USES THEREOF” (Stealth BioTherapeutics Inc., priority 2022, published 2024)
Residues, ends and D or L forms follow the SMILES beside them.

Tests used:
vincristine-related pain = test: Treatment of vincristine-induced hyperalgesia in humans; format: in vivo, human; conditions: s.c., once daily for 14 days
Description: Patients will be recruited to the study as they present in clinic with chronic (>6 months' duration), spontaneous, ongoing, vincristine-related pain. Those enrolled will rate their daily maximum level of pain at 4 or greater on a visual analogue scale (VAS). The patients will be screened for their willingness to enroll in the study, and informed consent will be obtained. Healthy subjects will also be recruited for collection of comparison data. No subjects in either the patient or comparison group will have known risk factors for any other cause of peripheral neuropathy, including diabetes, AIDS, chronic alcoholism, or previous radiation exposure. […] Touch and Sharpness Detection Thresholds-Touch detection thresholds will be determined with von Frey monofilaments using the up/down method as previously reported. […] The force of the filament detected four consecutive times will be assigned as the touch detection threshold. Sharpness detection will be determined using weighted 30-gauge metal cylinders. […] The percentages of each reply will be calculated and then combined into group grand means for comparison. The 50% sharpness detection threshold will be calculated as the weighted needle that caused five or more sharp responses after 10 consecutive stimuli. Grooved Pegboard Test-Manual dexterity will be assessed with the grooved pegboard test. […]

Sprague-Dawley rats = test: Example 38: acute renal injury caused by unilateral ureteral obstruction (UUO); format: in vivo, rat
Description: Sprague-Dawley rats will undergo unilateral ureteral ligation with a 4-0 silk suture through a midline abdominal incision under sterile conditions. Ureteral obstruction will be carried out by ligating the lower end of the left ureter, just above the ureterovesical junction. Peptide conjugates (1 mg/kg or 3 mg/kg; n=16); aromatic-cationic peptides (an equivalent molar dose of aromatic-cationic peptide based on the concentration of the aromatic-cationic peptide administered in the peptide conjugate treatment group); SPN10(s) (an equivalent molar dose of SPN10 based on the concentration of SPN10 administered in the peptide conjugate treatment group); SPN10(s) in combination with aromatic-cationic peptides (e.g., an equivalent molar dose of SPN10 based on the concentration of SPN10 administered in the peptide conjugate treatment group and an equivalent molar dose of aromatic-cationic peptide based on the concentration of aromatic-cationic peptide administered in the peptide conjugate treatment group); or control vehicle (n=16) will be administered intraperitoneally, one day prior to UUO and continuing for 14 days following UUO.
Renal Histology: Trichrome sections of paraffin embedded specimens will be examined by a board-certified pathologist (SVS, renal pathology specialist), and fibrosis scored on a scale of 0—+++.
Immunohistochemical Analysis: Immunohistochemical staining for macrophages will be carried out using a monoclonal antibody to ED-1 as previously described. Macrophages will be counted in 10 high-power fields (×400) by two independent investigators in a blinded fashion. Apoptosis will be measured by TUNEL assay as described in Example 37. The presence of fibroblasts will be examined using immunohistochemistry, as described above, using the DAKO #S100-A4 antibody (1:100 dilution). Antigen will be retrieved by incubating cells with Proteinase K for 20 minutes. The remaining immunoperoxidase protocol will be carried out according to routine procedures.
It is expected that S100-A4 staining will be present in spindle-shaped interstitial cells and round, inflammatory cells. Only spindle-shaped cells will be quantified. Staining for 8-OH dG will be done using Proteinase K for antigen retrieval and an antibody provided by the Japan Institute Control of Aging at a dilution of 1:200-1:500.
Polymerase Chain Reaction Analysis: Renal expression of heme oxygenase-1 (HO-1) will be measured by RT-PCR according to the following: Rat kidneys will be harvested and stored at −80° C. until use. Total RNA will be extracted using the Trizol (R)-Chloroform extraction procedure, and mRNA will be purified using the Oligotex mRNA extraction kit (Qiagen, Valencia, California, U.S.A.) according to manufacturer instructions. mRNA concentration and purity will be determined by measuring absorbance at 260 nm. RT-PCR will be performed using Qiagen One-step PCR kit (Qiagen, Valencia, California, U.S.A.) and an automated thermal cycler (ThermoHybrid, PX2). Thermal cycling will be carried out as follows: initial activation step for 15 minutes at 95° C. followed by 35 cycles of denaturation for 45 seconds at 94° C., annealing for 30 seconds at 60° C., extension for 60 seconds at 72° C. Amplification products will be separated on a 2% agarose gel electrophoresis, visualized by ethidium bromide staining, and quantified using Image J densitometric analysis software. GAPDH will be used as an internal control.

SMILES: N=C(N)NCCC[C@H](NC(=O)[C@@H](N)Cc1c[nH]c2ccccc12)C(=O)N[C@@H](Cc1c[nH]c2ccccc12)C(=O)N[C@@H](CCCCN)C(N)=O [SPN10, H-L-Trp-L-Arg-L-Trp-L-Lys-NH2] (H-WRWK-NH2)
- hyperalgesia symptoms (vincristine-related pain): reduction
- tubular cell proliferation at the 1 mg/kg dose (Sprague-Dawley rats; 1 mg/kg): decreased
- fibroblast infiltration in obstructed kidneys (FSP-1) (Sprague-Dawley rats; 1 mg/kg (conjugate) or equivalent molar dose): significantly decrease the amount of fibroblast infiltration
- tubular apoptosis in obstructed kidneys (Sprague-Dawley rats; 1 mg/kg (conjugate) or equivalent molar dose, 2 weeks of UUO): significantly decrease tubular apoptosis
- macrophage infiltration in obstructed kidneys (Sprague-Dawley rats; 1 mg/kg or 3 mg/kg (conjugate) or equivalent molar dose): significantly decrease macrophage infiltration
- tubular cell proliferation at the 3 mg/kg dose (Sprague-Dawley rats; 3 mg/kg): further decreased
- trichrome staining (fibrosis score), cortex of obstructed kidney (Sprague-Dawley rats; 14 days UUO): 0-trace
- trichrome staining (fibrosis score), medulla of obstructed kidney (Sprague-Dawley rats; 14 days UUO): tr—1+
- HO-1 expression in the obstructed kidney (Sprague-Dawley rats; RT-PCR): decrease HO-1 expression
- medullary fibrosis (Sprague-Dawley rats; rat, in vivo): decrease medullary fibrosis
- number of 8-OH dG positive cells (Sprague-Dawley rats; rat, in vivo): significantly reduced
- renal tubular proliferation in obstructed kidneys (PCNA) (Sprague-Dawley rats; rat, in vivo): significant decrease in renal tubular proliferation
